The source of these data is the NIST ThermoML archive (doi:10.1016/j.jct.2010.04.003).

± gives the expanded uncertainty stated by the source.

For the data set the following is noted: 101.33 kPa, Liquid, Buoyancy - hydrostatic balance with magnetic suspension - one sinker.

`CN(C)P(=O)(N(C)C)N(C)C` [tris(dimethylamino)phosphine oxide]: the mass density runs as follows: (288.15 K) 1028.54 ± 0.33 kg/m3; (293.15 K) 1024.33 ± 0.33 kg/m3; (298.15 K) 1020.03 ± 0.33 kg/m3; (303.15 K) 1015.86 ± 0.32 kg/m3; (308.15 K) 1011.61 ± 0.32 kg/m3.

By mass density is commonly meant the mass of a sample divided by its volume.
